From patent US7601333B2, “Use of a tetrapeptide AcSDKP (SEQ ID No. 1) analog resistant to the angiotensin I converting enzyme for measuring glomerular filtration rate in a human or an animal and kit containing same” (Assistance Publique-Hopitaux de Paris, priority 2003, dated 2009)
Where “and” joins values, the source holds several entries; their conditions need not be identical. Equal entries are not always repeated. Residues, ends and D or L forms follow the SMILES beside them.

Tests used:
[1] = cited from earlier work
[2] = system: plasma proteins; details: cited from earlier work
[3] = Plasma and urine pharmacokinetics after I.V. bolus in rats; details: for % excreted - endog / CLR -endog: endogenous AcSDKP subtracted; for % excreted: urine
[4] = target: N-terminal site of ACE (Homo sapiens, UniProt P12821); details: AcSDKP as substrate, in vitro; cited from earlier work
Chain of N-terminal site of ACE (P12821 40-624 limits assumed): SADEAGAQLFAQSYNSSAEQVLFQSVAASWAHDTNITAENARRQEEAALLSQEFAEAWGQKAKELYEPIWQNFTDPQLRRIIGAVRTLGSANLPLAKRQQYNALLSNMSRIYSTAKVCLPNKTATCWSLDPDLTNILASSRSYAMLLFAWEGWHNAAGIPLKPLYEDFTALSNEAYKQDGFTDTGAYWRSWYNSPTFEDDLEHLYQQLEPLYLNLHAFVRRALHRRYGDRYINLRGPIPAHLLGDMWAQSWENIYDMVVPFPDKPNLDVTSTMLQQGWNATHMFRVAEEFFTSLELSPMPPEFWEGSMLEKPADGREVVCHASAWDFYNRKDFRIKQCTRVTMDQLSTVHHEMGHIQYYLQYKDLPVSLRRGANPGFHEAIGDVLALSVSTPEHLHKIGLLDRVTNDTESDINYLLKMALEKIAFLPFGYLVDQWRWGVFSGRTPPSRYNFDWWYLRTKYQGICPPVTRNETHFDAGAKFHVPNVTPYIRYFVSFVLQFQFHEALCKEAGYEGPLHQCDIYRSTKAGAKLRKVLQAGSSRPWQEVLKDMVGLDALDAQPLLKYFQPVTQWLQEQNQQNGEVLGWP

[5] = Group 1, i.v. bolus, without captopril, mean
[6] = Group 1, i.v. bolus, without captopril, single rats
[7] = Group 2, i.v. bolus, with captopril, 2-4 h, single rats
[8] = Group 2, i.v. bolus, with captopril, mean
[9] = Group 2, i.v. bolus, with captopril, single rats
[10] = summarizing table, rats, i.v. bolus, with captopril
[11] = summarizing table, rats, i.v. bolus, without captopril

In the case of `CC(=O)N[C@@H](CO)C(=O)N[C@@H](CC(=O)O)C(=O)N[C@@H](CCCCN)C(=O)N1CCC[C@H]1C(=O)O` [AcSDKP, N-acetyl-Ser-Asp-Lys-Pro] (Ac-SDKP-OH; C-terminus assumed), the “concentration in the plasma, minimum value” ([1]; between two 50 mg doses of captopril) is listed as 0.002 µM, the “urinary clearance relative to endogenous creatinine clearance” value ([1]; with an ACE inhibitor) is listed as 69±27% and the “bound to the plasma proteins” value [2] is listed as less than 1%. The Q in urine ([3]; Group 1, i.v. bolus, without captopril, 0-2 h, single rats) was 25.1 nmol and 0.0 nmol and 46.7 nmol and 0.1 nmol, the Q in urine ([3]; Group 1, i.v. bolus, without captopril, 2-4 h, single rats) was 7.1 nmol and 0.0 nmol and 15.7 nmol and 36.4 nmol and the Q in urine ([3]; Group 1, i.v. bolus, without captopril, 4-5 h, single rats) was 33.5 nmol and 51.3 nmol and 0.0 nmol and 14.6 nmol. For the same compound, the Q in urine ([3]; Group 1, i.v. bolus, without captopril, 5-24 h, single rats) was 9.9 nmol and 10.2 nmol and 0.0 nmol and 20.6 nmol and 78.5 nmol, the Q in urine ([3]; Group 1, i.v. bolus, without captopril, 24-36 h, single rats) was 4.1 nmol and 3.4 nmol and 15.5 nmol and 0.9 nmol and the Q in urine ([3]; Group 1, i.v. bolus, without captopril, 36-48 h, single rats) was 4.0 nmol and 1.7 nmol and 3.4 nmol and 2.0 nmol and 7.9 nmol. For the same compound, the Concentration in plasma ([3]; Group 1, i.v. bolus, without captopril, 5 min, single rats) was 2188 nM and 1759 nM and 1239 nM and 2100 nM and 1802 nM, the Concentration in plasma ([3]; Group 1, i.v. bolus, without captopril, 10 min, single rats) was 729 nM and 400 nM and 265 nM and 671 nM and 508 nM and the Concentration in plasma ([3]; Group 1, i.v. bolus, without captopril, 15 min, single rats) was 268 nM and 96 nM and 135 nM and 328 nM and 143 nM. For the same compound, the Concentration in plasma ([3]; Group 1, i.v. bolus, without captopril, 30 min, single rats) was 34 nM and 14 nM and 10 nM (2×) and 121 nM, the Concentration in plasma ([3]; Group 1, i.v. bolus, without captopril, 60 min, single rats) was 5 nM and 0.36 nM and 0.15 nM and 33 nM and 2 nM and the Concentration in plasma ([3]; Group 1, i.v. bolus, without captopril, 120 min, single rats) was “ILQ (4×) and 2 nM”. For the same compound, the Concentration in plasma ([3]; Group 1, i.v. bolus, without captopril, 180 min, single rats) was “ILQ”, the Concentration in plasma ([3]; Group 1, i.v. bolus, without captopril, 240 min, single rats) was “ILQ” and the Concentration in plasma ([3]; Group 1, i.v. bolus, without captopril, 300 min, single rats) was “ILQ”. The “% excreted - endog” value [3, 5] was 7.86%, the CLR -endog [3, 5] was 0.6726 L/h/kg and the “% excreted - endog” value [3, 6] was 8.9% and 8.0% and 5.6% and 8.3% and 8.5%. The CLR -endog [3, 6] was 0.516 L/h/kg and 0.666 L/h/kg and 0.69 L/h/kg and 0.708 L/h/kg and 0.78 L/h/kg, the AUC0-inf [3, 5] was 17393 nM·min and the CLR [3, 5] was 0.8712 L/h/kg. For the same compound, the VD [3, 5] was 1.389 L/kg, the t½ [3, 5] was 6.8 min and the AUC0-inf [3, 6] was 230401 nM·min and 16319 nM·min and 13026 nM·min and 18178 nM·min and 16223 nM·min. The CLR [3, 6] was 0.642 L/h/kg and 0.75 L/h/kg and 1.22 L/h/kg and 0.768 L/h/kg and 0.984 L/h/kg, the “Q in urine total” value [3, 6] was 83.7 nmol and 66.6 nmol and 81.3 nmol and 74.5 nmol and 86.5 nmol and the VD [3, 6] was 0.894 L/kg and 1.07 L/kg and 1.034 L/kg and 2.6 L/kg and 1.346 L/kg. The t½ [3, 6] was 6.4 min and 4.7 min and 4.4 min and 12.8 min and 5.9 min, the “% excreted” value [3, 6] was 1.1% and 9.4% and 10.5% and 8.9% and 10.4% and the Q in urine ([3]; Group 2, i.v. bolus, with captopril, 0-2 h, single rats) was 0.0 nmol. For the same compound, the Concentration in urine [3, 7] was 126.118 µM, the Q in urine [3, 7] was 0.2 nmol and 744.4 nmol and 820.9 nmol and 0.0 nmol and 535.3 nmol and the Q in urine ([3]; Group 2, i.v. bolus, with captopril, 4-6 h, single rats) was 0.0 nmol. For the same compound, the Q in urine ([3]; Group 2, i.v. bolus, with captopril, 6-24 h, single rats) was 504.6 nmol and 49.0 nmol and 219.7 nmol and 649.1 nmol and 202.3 nmol, the Q in urine ([3]; Group 2, i.v. bolus, with captopril, 24-30 h, single rats) was 1.6 nmol and 9.6 nmol and 0.0 nmol (3×) and the Q in urine ([3]; Group 2, i.v. bolus, with captopril, 30-48 h, single rats) was 8.0 nmol and 2.5 nmol and 10.6 nmol (2×) and 0.4 nmol. For the same compound, the Concentration in plasma ([3]; Group 2, i.v. bolus, with captopril, 5 min, single rats) was 6707 nM and 5413 nM and 5511 nM and 5293 nM and 5393 nM, the Concentration in plasma ([3]; Group 2, i.v. bolus, with captopril, 10 min, single rats) was 5920 nM and 4813 nM and 4288 nM and 5439 nM and 4445 nM and the Concentration in plasma ([3]; Group 2, i.v. bolus, with captopril, 15 min, single rats) was 5571 nM and 4016 nM and 3399 nM and 3876 nM and 3343 nM. The Concentration in plasma ([3]; Group 2, i.v. bolus, with captopril, 30 min, mean) was 2457 nM, the Concentration in plasma ([3]; Group 2, i.v. bolus, with captopril, 30 min, single rats) was 2173 nM and the Concentration in plasma ([3]; Group 2, i.v. bolus, with captopril, 60 min, single rats) was 1759 nM and 735 nM and 848 nM and 1069 nM and 590 nM. For the same compound, the Concentration in plasma ([3]; Group 2, i.v. bolus, with captopril, 120 min, single rats) was 501 nM and 151 nM and 145 nM and 197 nM and 97 nM, the Concentration in plasma ([3]; Group 2, i.v. bolus, with captopril, 180 min, single rats) was 159 nM and 32 nM and 39 nM and 48 nM and 21 nM and the Concentration in plasma ([3]; Group 2, i.v. bolus, with captopril, 240 min, single rats) was 52 nM and 10 nM and 18 nM and 23 nM and 7 nM. The Concentration in plasma ([3]; Group 2, i.v. bolus, with captopril, 300 min, single rats) was 26 nM and 9 nM and 6 nM and 11 nM and 4 nM, the “% excreted - endog” value [3, 8] was 97% and the CLR -endog [3, 8] was 0.7002 L/h/kg. For the same compound, the “% excreted - endog” value [3, 9] was 75.3% and 85.1% and 139.3% and 90.2% and 95.1%, the CLR -endog [3, 9] was 0.312 L/h/kg and 0.792 L/h/kg and 0.984 L/h/kg and 0.606 L/h/kg and 0.81 L/h/kg and the “AUC0-INF” value [3, 8] was 224742 nM·min. For the same compound, the CLR [3, 8] was 0.7164 L/h/kg, the Vd [3, 8] was 0.515 L/kg and the t½ [3, 8] was 30.7 min. For the same compound, the “AUC0-INF” value [3, 9] was 341133 nM·min and 196456 nM·min and 200683 nM·min and 217932 nM·min and 167504 nM·min, the CLR [3, 9] was 0.323 L/h/kg and 0.8154 L/h/kg and 1.003 L/h/kg and 0.6054 L/h/kg and 0.8346 L/h/kg and the “Q in urine total” value [3, 9] was 514.5 nmol and 805.5 nmol and 1051.2 nmol and 649.5 nmol and 748.3 nmol. The Vd [3, 9] was 0.653 L/kg and 0.499 L/kg and 0.505 L/kg and 0.567 L/kg, the t½ [3, 9] was 35.5 min and 29.2 min and 29.5 min and 31.4 min and 28.1 min and the “% excreted” value [3, 9] was 78.2% and 87.7% and 142.2% and 90.4% and 97.9%. The “degradation in vivo” value ([3]; rats, in the absence of captopril) was “rapidly degraded in vivo”, the Renal clearance [3, 10] was 0.702 L/h/kg and the “T ½ life” value [3, 10] was 30.7 min. The Total clearance [3, 10] was 0.714 L/h/kg, the “T ½ life” value [3, 11] was 6.8 min and the Total clearance [3, 11] was 8.664 L/h/kg. The “catalytic effectiveness of N-terminal site of ACE relative to C-terminal site” value [4] was 50 times.
